This note sets out measurements from patent publication US11191855B2, “1,7-diaryl-1,6-heptadiene-3,5-dione derivatives, methods for the production and use thereof” (UNIVERSITÄTSKLINIKUM REGENSBURG, priority 2015, dated 2021).

Read-outs that look alike come from different tables or passages of the source.

For test [1], the system named is E. coli ATCC 25922. Put plainly: Phototoxicity test c.1) (LED array 430-435 nm, CFU count by Miles and Misra). The settings on record: Escherichia coli, ATCC25922, light or radiation study, light dose 33.8 J/cm^2, approx. 435 nm, 60 min at 9.4 mW/cm^2, vs reference control; for log reduction at 10 µM: read-out: Effectiveness against E. Coli: Reduction in CFU in log10 at concentration of 10 μM; for log reduction at 50 µM: read-out: Effectiveness against E. Coli: Reduction in CFU in log10 at concentration of 50 μM. It is filed as cell-based, Escherichia coli. On the procedure:
(§1) A sample of the bacterial cell Staphylococcus. aureus (ATCC number: 25923) or Escherichia. coli (ATCC number: 25922) was removed from a cryo-freeze culture and cultured under aerobic conditions at 37° C. and 175 rpm overnight in an orbital shaker (MAXQ4000, Thermo Scientific, Dubuque, Iowa, USA). Growth was carried out in 20 mL Todd-Hewitt broth (Carl Roth, Karlsruhe, Germany) supplemented with 0.3% of yeast extract (AppliChem, Darmstadt, Germany).
Subsequently, dilutions (0, 5, 10, […] and 20% v/v of the overnight culture) and their absorptions were measured at 600 nm in triplicate for 100 μL (Infinite 200 M Pro, Tecan, Mannedorf, Switzerland). A calibration graph (Microsoft Excel) was used to calculate the volume which was required to produce 20 mL of a culture with an absorption of 0.05 at 600 nm. The volume calculated for the overnight culture was topped up with Todd-Hewitt broth (composition as above) to 20 mL and incubated for two hours at 37° C. with constant movement (175 rpm, MAXQ4000). The cultures were then in the exponential growth phase; the absorption at 600 nm was between 0.3 and 0.45.
A 2-hour culture was divided into 1800 μL aliquots. After centrifuging at 20° C., 830 rcf, 5 min (5417R centrifuge, Eppendorf, Hamburg, Germany), the pellets were re-suspended in phosphate buffer (Dulbeccos' Modified Phosphate Saline, DPBS, Sigma-Aldrich) with either 10 or 50 μM of the corresponding photosensitizer, wherein the final volume was kept at 1800 μL.
The solutions obtained were immediately incubated on the orbital shaker (see above for parameters) for 5 or 25 minutes.
Three controls were run at the same time for each photosensitizer. The “light only” control contained DPBS without photosensitizer. The “photosensitizer only” (“PS only”) control was incubated like the PDI samples, but not irradiated and kept strictly in darkness. A further control (double negative, “Co−/−”), received neither light nor photosensitizer.
After the incubation, duplicates of the samples (500 μL each) were transferred into a 24-well microtitre plate (Cellstar, Greiner Bio-One, Frickenhausen, Germany). The “PS only” and “Co −/−” samples were placed in their own microtitre plate which was packed in aluminium foil so as to be lightproof.
The irradiation was carried out under constant shaking (MTS4, IKA, Staufen, Germany, 175 rpm) from below on a LED array with maximum homogeneity of the lighting surface. All of the controls were shaken in the same manner. The technical data for the light source are shown in Table 2; the total dose of light applied was 33.8 J/cm^2.
The determination of the colony forming units (CFU) was carried out in accordance with the method published by Miles and Misra (Miles, A A; Misra, S S, Irwin, J O (1938 Nov.). “The estimation of the bactericidal power of the blood” The Journal of hygiene 38 (6): 732-49). In this regard, serial dilutions (1:10) of the corresponding bacterial suspension were produced in DPBS. 5×10 μL of each bacterial dilution was then dripped onto Todd-Hewitt plates (with broth, additional 1.5% agar (Agar-Agar, Kobe I, Roth, Karlsruhe, Germany) and incubated at 37° C. for 24 h. Next, the number of surviving colony forming units was determined. All of the tests were carried out four times.
The photosensitizers were tested against the bacterial strain E. coli ATCC 25922. FIGS. 1-20 show the measured surviving colony forming units (CFU).
The average reference control (arithmetic mean with standard deviation) (no light, no PS) was 3.6×10^8/mL. The logarithmic reduction after illumination is shown with respect to the reference control. The respective upper value, indicated by a *, refers to an incubation period of 5 min and the respectively lower value, indicated by a #, refers to an incubation period of 25 min.

The test system of test [2] is E. coli ATCC 25922. The test is described as follows: Phototoxicity test c.2) (BlueV light source, emission maximum approx. 420 nm, CFU count). The test is classed as cell-based, Escherichia coli. The settings on record: light dose 15.7 J/cm^2, approx. 420 nm, 15 min at 17.5 mW/cm^2, vs reference control. On the procedure: as §1
In a second experiment, the photosensitizers (PS) used were dissolved in Millipore water and adjusted to various concentrations. 25 μL of a bacterial suspension grown overnight (˜108/mL) was incubated with 25 μL of photosensitizer solution of the various concentrations at room temperature for 10 seconds in darkness in a 96-well plate.
Next, the suspension was irradiated for 5-20 minutes. For the irradiation, the light source BlueV from Waldmann (Villingen-Schwenningen, Germany) was used, which emits light from 380 to 480 nm (emission maximum at approximately 420 nm). The applied energy density was 17.5 mW/cm^2.
Each experiment was accompanied by three controls in order to exclude side effect of the irradiation/photosensitizer (PS) on the survival of the bacteria: (i) no PS, only light (=light control), (ii) no light, only PS (=dark control) and (iii) neither light nor PS (=reference control). The determination of the colony forming units (CFU) per mL was also carried out in accordance with the method published by Miles, Misra and Irwin described above in section c.1). All of the tests were carried out four times.
The photosensitizers (PS) SACUR-01a, SACUR-03 and SACUR-07 were tested against the bacterial strains S. aureus ATCC 25923 and E. coli ATCC 25922 (FIGS. 21-23). All of the remaining PS were tested against S. aureus ATCC 25923 (FIGS. 24-33). FIGS. 21-33 show the logarithmic reduction after illumination with respect to the reference control.
The average reference control (arithmetic mean with standard deviation) (no light, no PS) was 3.6×10^8/mL for E. coli. The logarithmic reduction after illumination is shown with respect to the reference control.

The mark [3] stands for this setting: 5 min, incubation period 5 min (upper value, *).
Setting [4] is: 25 min, incubation period 25 min (lower value).

`COc1cc(/C=C/C(=O)CC(=O)/C=C/c2ccc(OCCN)c(OC)c2)ccc1OCCN.Cl.Cl` [Curcumin 01a hydrochloride]: in test [1] (setting [3]), the log reduction at 10 µM was greater than 1 and the log reduction at 50 µM was greater than 5. Also, in test [1] (setting [4]), the log reduction at 10 µM is greater than 2 and the log reduction at 50 µM was greater than 5. For the same compound, in test [2], the “Effectiveness against E. Coli: Reduction in CFU in log10 at concentration of 10 μM” value is greater than 4 log10 and the “Effectiveness against E. Coli: Reduction in CFU in log10 at concentration of 50 μM” value is greater than 5 log10.
In the case of `Cl.Cl.Cl.Cl.NCCOc1ccc(/C=C/C(=O)CC(=O)/C=C/c2ccc(OCCN)c(OCCN)c2)cc1OCCN` [Curcumin 03 hydrochloride], in test [1] (setting [3]), the log reduction at 10 µM was greater than 7 and the log reduction at 50 µM is greater than 7. Further, in test [1] (setting [4]), the log reduction at 10 µM was greater than 7 and the log reduction at 50 µM is greater than 7. In test [2], the “Effectiveness against E. Coli: Reduction in CFU in log10 at concentration of 10 μM” value is greater than 4 log10 and the “Effectiveness against E. Coli: Reduction in CFU in log10 at concentration of 50 μM” value is listed as greater than 5 log10.
